{"source": "paper PMC9945734", "about": "(BMC Medicine, 2023)", "tested_on": "PC-3-KQ and PC-3-KR cells", "assay": "RNA-sequencing and differential gene expression", "format": "cell-based, human", "conditions": "RNA-Seq, PC-3-KQ cells"}
{"smiles": "CC(=O)Oc1ccccc1C(=O)Nc1ncc([N+](=O)[O-])s1", "note": "[Nitazoxanide]", "values": [{"measurement": "IL21R Change (KQ-Control vs KQ-NTZ)", "result": "DOWN"}, {"measurement": "IL21R logFC (KQ-Control vs KQ-NTZ)", "result": -0.8899}, {"measurement": "INHBA Change (KQ-Control vs KQ-NTZ)", "result": "DOWN"}, {"measurement": "INHBA logFC (KQ-Control vs KQ-NTZ)", "result": -0.6293}, {"measurement": "INHBB Change (KQ-Control vs KQ-NTZ)", "result": "DOWN"}, {"measurement": "INHBB logFC (KQ-Control vs KQ-NTZ)", "result": -0.6733}, {"measurement": "KIAA1755 Change (KQ-Control vs KQ-NTZ)", "result": "DOWN"}, {"measurement": "KIAA1755 logFC (KQ-Control vs KQ-NTZ)", "result": -0.9388}, {"measurement": "KLK9 Change (KQ-Control vs KQ-NTZ)", "result": "DOWN"}, {"measurement": "KLK9 logFC (KQ-Control vs KQ-NTZ)", "result": -1.8809}, {"measurement": "LGALS12 Change (KQ-Control vs KQ-NTZ)", "result": "DOWN"}, {"measurement": "LGALS12 logFC (KQ-Control vs KQ-NTZ)", "result": -2.2497}, {"measurement": "LILRB3 Change (KQ-Control vs KQ-NTZ)", "result": "DOWN"}, {"measurement": "LILRB3 logFC (KQ-Control vs KQ-NTZ)", "result": -0.8729}, {"measurement": "LOC105373989 Change (KQ-Control vs KQ-NTZ)", "result": "DOWN"}, {"measurement": "LOC105373989 logFC (KQ-Control vs KQ-NTZ)", "result": -0.7405}, {"measurement": "LOC105377805 Change (KQ-Control vs KQ-NTZ)", "result": "DOWN"}, {"measurement": "LOC105377805 logFC (KQ-Control vs KQ-NTZ)", "result": -0.9959}, {"measurement": "LOC107987158 Change (KQ-Control vs KQ-NTZ)", "result": "DOWN"}, {"measurement": "LOC107987158 logFC (KQ-Control vs KQ-NTZ)", "result": -1.1348}, {"measurement": "LONRF2 Change (KQ-Control vs KQ-NTZ)", "result": "DOWN"}, {"measurement": "LONRF2 logFC (KQ-Control vs KQ-NTZ)", "result": -0.9823}, {"measurement": "LTB Change (KQ-Control vs KQ-NTZ)", "result": "DOWN"}, {"measurement": "LTB logFC (KQ-Control vs KQ-NTZ)", "result": -0.7686}, {"measurement": "LY6K Change (KQ-Control vs KQ-NTZ)", "result": "DOWN"}, {"measurement": "LY6K logFC (KQ-Control vs KQ-NTZ)", "result": -0.6327}, {"measurement": "MAP7D3 Change (KQ-Control vs KQ-NTZ)", "result": "DOWN"}, {"measurement": "MAP7D3 logFC (KQ-Control vs KQ-NTZ)", "result": -0.8315}, {"measurement": "MCM4 Change (KQ-Control vs KQ-NTZ)", "result": "DOWN"}, {"measurement": "MCM4 logFC (KQ-Control vs KQ-NTZ)", "result": -0.8431}, {"measurement": "MEOX1 Change (KQ-Control vs KQ-NTZ)", "result": "DOWN"}, {"measurement": "MEOX1 logFC (KQ-Control vs KQ-NTZ)", "result": -0.6507}, {"measurement": "MMP9 Change (KQ-Control vs KQ-NTZ)", "result": "DOWN"}, {"measurement": "MMP9 logFC (KQ-Control vs KQ-NTZ)", "result": -0.7252}, {"measurement": "MNX1 Change (KQ-Control vs KQ-NTZ)", "result": "DOWN"}, {"measurement": "MNX1 logFC (KQ-Control vs KQ-NTZ)", "result": -0.604}, {"measurement": "MSMP Change (KQ-Control vs KQ-NTZ)", "result": "DOWN"}, {"measurement": "MSMP logFC (KQ-Control vs KQ-NTZ)", "result": -1.1495}, {"measurement": "MYBL2 Change (KQ-Control vs KQ-NTZ)", "result": "DOWN"}, {"measurement": "MYBL2 logFC (KQ-Control vs KQ-NTZ)", "result": -0.7249}, {"measurement": "MYH7B Change (KQ-Control vs KQ-NTZ)", "result": "DOWN"}, {"measurement": "MYH7B logFC (KQ-Control vs KQ-NTZ)", "result": -0.9453}, {"measurement": "NKD1 Change (KQ-Control vs KQ-NTZ)", "result": "DOWN"}, {"measurement": "NKD1 logFC (KQ-Control vs KQ-NTZ)", "result": -0.7476}, {"measurement": "NRK Change (KQ-Control vs KQ-NTZ)", "result": "DOWN"}, {"measurement": "NRK logFC (KQ-Control vs KQ-NTZ)", "result": -1.1538}, {"measurement": "NTF4 Change (KQ-Control vs KQ-NTZ)", "result": "DOWN"}, {"measurement": "NTF4 logFC (KQ-Control vs KQ-NTZ)", "result": -0.9396}, {"measurement": "PADI3 Change (KQ-Control vs KQ-NTZ)", "result": "DOWN"}, {"measurement": "PADI3 logFC (KQ-Control vs KQ-NTZ)", "result": -0.9445}, {"measurement": "PCDH18 Change (KQ-Control vs KQ-NTZ)", "result": "DOWN"}, {"measurement": "PCDH18 logFC (KQ-Control vs KQ-NTZ)", "result": -1.1702}, {"measurement": "PEG10 Change (KQ-Control vs KQ-NTZ)", "result": "DOWN"}, {"measurement": "PEG10 logFC (KQ-Control vs KQ-NTZ)", "result": -0.7533}, {"measurement": "PFKFB1 Change (KQ-Control vs KQ-NTZ)", "result": "DOWN"}, {"measurement": "PFKFB1 logFC (KQ-Control vs KQ-NTZ)", "result": -0.9123}, {"measurement": "PGAM4 Change (KQ-Control vs KQ-NTZ)", "result": "DOWN"}, {"measurement": "PGAM4 logFC (KQ-Control vs KQ-NTZ)", "result": -0.6254}, {"measurement": "PHACTR3 Change (KQ-Control vs KQ-NTZ)", "result": "DOWN"}, {"measurement": "PHACTR3 logFC (KQ-Control vs KQ-NTZ)", "result": -1.8948}, {"measurement": "PHOSPHO2 Change (KQ-Control vs KQ-NTZ)", "result": "DOWN"}, {"measurement": "PHOSPHO2 logFC (KQ-Control vs KQ-NTZ)", "result": -0.6401}, {"measurement": "PIANP Change (KQ-Control vs KQ-NTZ)", "result": "DOWN"}, {"measurement": "PIANP logFC (KQ-Control vs KQ-NTZ)", "result": -1.6896}, {"measurement": "PRKDC Change (KQ-Control vs KQ-NTZ)", "result": "DOWN"}, {"measurement": "PRKDC logFC (KQ-Control vs KQ-NTZ)", "result": -0.6126}, {"measurement": "PRR16 Change (KQ-Control vs KQ-NTZ)", "result": "DOWN"}, {"measurement": "PRR16 logFC (KQ-Control vs KQ-NTZ)", "result": -0.5996}, {"measurement": "PRR29 Change (KQ-Control vs KQ-NTZ)", "result": "DOWN"}, {"measurement": "PRR29 logFC (KQ-Control vs KQ-NTZ)", "result": -0.8108}, {"measurement": "PRRT4 Change (KQ-Control vs KQ-NTZ)", "result": "DOWN"}, {"measurement": "PRRT4 logFC (KQ-Control vs KQ-NTZ)", "result": -0.6032}, {"measurement": "RBL1 Change (KQ-Control vs KQ-NTZ)", "result": "DOWN"}, {"measurement": "RBL1 logFC (KQ-Control vs KQ-NTZ)", "result": -0.6965}, {"measurement": "RPP25 Change (KQ-Control vs KQ-NTZ)", "result": "DOWN"}, {"measurement": "RPP25 logFC (KQ-Control vs KQ-NTZ)", "result": -0.6095}, {"measurement": "SCG2 Change (KQ-Control vs KQ-NTZ)", "result": "DOWN"}, {"measurement": "SCG2 logFC (KQ-Control vs KQ-NTZ)", "result": -0.6461}, {"measurement": "SERPINA3 Change (KQ-Control vs KQ-NTZ)", "result": "DOWN"}, {"measurement": "SERPINA3 logFC (KQ-Control vs KQ-NTZ)", "result": -0.7667}]}
